Molecules are shown by their SMILES. pIC50: −log10 of the molar value.

Broadly, the pIC50 is the IC50 on a negative log10 scale, so that one unit is a factor of ten. A high value points to a small IC50.

The target of this test is T1, Tyrosine-protein kinase ITK/TSK (Homo sapiens, UniProt Q08881).
T1 sequence (Q08881 whole entry): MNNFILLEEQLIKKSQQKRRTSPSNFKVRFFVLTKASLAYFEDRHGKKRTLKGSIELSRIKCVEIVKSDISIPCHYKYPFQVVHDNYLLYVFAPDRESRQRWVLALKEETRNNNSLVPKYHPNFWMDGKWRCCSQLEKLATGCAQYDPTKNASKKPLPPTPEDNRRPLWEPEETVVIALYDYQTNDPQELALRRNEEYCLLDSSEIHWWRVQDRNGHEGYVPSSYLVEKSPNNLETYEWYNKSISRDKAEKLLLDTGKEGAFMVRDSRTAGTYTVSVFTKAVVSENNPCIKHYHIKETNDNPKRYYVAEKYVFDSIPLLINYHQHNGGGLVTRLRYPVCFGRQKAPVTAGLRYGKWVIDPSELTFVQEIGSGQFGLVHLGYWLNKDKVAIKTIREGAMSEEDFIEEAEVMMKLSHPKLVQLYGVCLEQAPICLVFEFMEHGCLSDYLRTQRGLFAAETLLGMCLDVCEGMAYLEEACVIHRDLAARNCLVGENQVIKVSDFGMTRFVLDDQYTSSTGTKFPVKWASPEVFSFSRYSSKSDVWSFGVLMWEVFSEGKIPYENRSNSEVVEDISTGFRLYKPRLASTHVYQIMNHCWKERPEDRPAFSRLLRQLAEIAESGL
Description: ITK Enzyme Assay. The method, then:
1.0 M HEPES Buffer pH 7.5 solution was prepared as follows: 238.3 g HEPES free acid (Sigma) and 800 mL of water were combined, and the mixture was stirred until complete dissolution. The pH was adjusted to 7.5 via titration with 5N NaOH and the volume adjusted to 1000 mL. The solution was filtered and sterilized.ITK assay buffer was prepared as follows: 50 mL of HPLC-grade water was treated with 2 mL of 1.0 M HEPES Buffer, 500 μL of 2% Gelatin (Sigma), 1.0 mL of aqueous MgCl2 solution (1.0 M), and 1.0 mL of aqueous glutathione solution (0.5 M), and the solution was mixed. The solution was brought to 99 mL in a graduated cylinder by addition of water and sterilized through a 0.2 μm filter. 0.1 mL of Brij-35 Surfact-Amps Detergent Solution (10% w/v aqueous solution, ThermoFisher) and 1.0 mL of ATP (Teknova,100 mM) were added and the solution was mixed.Preparation of 1.33 ITK enzyme solution was as follows: 49.99 mL of ITK assay buffer was treated with 4.1 μL of ITK enzyme (ITK FL (N-Flag and C-His tagged, […]) Lake Pharma, 0.25 mg/ml in a buffer containing 25 mM Tris pH 7.8, 150 mM NaCl, 10% glycerol and 2 mM TCEP) and the mixture was gently agitated. The resulting solution was stored on ice. 30 Minutes prior to use, the enzyme solution was removed from ice and equilibrated to RT by incubation in a RT water bath.
`C[C@@H](C(=O)N(C)c1cnc2[nH]c(-c3n[nH]c4c3CCC(C)(C)C4)nc2c1)N1CCOCC1` [US20240124439, Example 14] gave a pIC50 of 6.83. To `CC(C)(C(=O)Nc1cnc2[nH]c(-c3n[nH]c4c3C[C@@H]3C[C@]3(C)C4)nc2c1)N1CCOCC1` [US20240124439, Example 16] belongs 6.13; to `CCN(C(=O)[C@H](C)C1CCOCC1)c1cnc2[nH]c(-c3n[nH]c4c3CCC(C)(C)C4)nc2c1` [US20240124439, Example 18], 7.55; to `C[C@H](C(=O)N(C)c1cnc2[nH]c(-c3n[nH]c4c3C[C@@H]3C[C@]3(C)C4)nc2c1)N1CCOCC1` [US20240124439, Example 26], 6.87. To `C[C@@H](C(=O)Nc1ccc2[nH]c(-c3n[nH]c4c3CCC(C)(C)C4)nc2c1)N1CCOCC1` [US20240124439, Example 33] belongs 5.70; to `CCc1nc2[nH]c(-c3n[nH]c4c3C[C@@H]3C[C@]3(C)C4)nc2cc1N(C)C(=O)CN1CCOCC1` [US20240124439, Example 37], 6.83; to `CN(C(=O)CC1CC(F)(F)C1)c1cnc2nc(-c3n[nH]c4c3C[C@@H]3C[C@]3(C)C4)[nH]c2c1` [US20240124439, Example 48], 7.18. Turning to `CN(C(=O)CC1CC2(CCC2)C1)c1cnc2nc(-c3n[nH]c4c3C[C@@H]3C[C@]3(C)C4)[nH]c2c1` [US20240124439, Example 49], the pIC50 is 7.60.

For `CN(C(=O)CC1CC2(C1)CC2(F)F)c1cnc2nc(-c3n[nH]c4c3C[C@@H]3C[C@]3(C)C4)[nH]c2c1` (stereo not given in full) [US20240124439, Example 50], the pIC50 was 7.48. Next, `CN(C(=O)CC1CC2(C1)CC(F)(F)C2)c1cnc2nc(-c3n[nH]c4c3C[C@@H]3C[C@]3(C)C4)[nH]c2c1` [US20240124439, Example 54]: 7.21.

For the origin of these results see BindingDB's records for patent US20240124439 (Pfizer, 2024).
